Legend:
TLR8 = TLR8 mRNA expression in primary human macrophages incubated with autologous serum; format: cell-based; conditions: primary human macrophages of healthy donors, 24 h
Method: RNA was quantitated using a NanoDrop 1000 spectrophotometer (NanoDrop Products, Wilmington, DE). cDNA was synthesized using High Capacity cDNA Reverse Transcription Kit (Applied Biosystems, Foster City, CA) following the manufacturer's protocol and qPCR was performed using the TaqMan system (Applied Biosystems) using cDNA and gene specific primers in accordance with the manufacturer's protocol.
(§1) To target autologous EVs containing miR-21, primary human PBMCs were isolated from whole blood as indicated above, incubated in the presence of 20% autogolous serum, and treated with locked nucleic acid (LNA) sequences designed to antagonize miR-21 (Exiqon, Vedbaek, Denmark) following liposomal complexing with DOTAP (Roche) according to the manufacturer's protocol.

IL-12 = IL-12 secretion of THP-1 cells (ELISA); format: cell-based, human; conditions: 24 h
THP-1 cells = assay: Nanoparticle tracking analysis of extracellular vesicle production by THP-1 cells; format: cell-based, human
Method: as §1
The NanoSight LM 10 system (NanoSight, Wiltshire, United Kingdom) was used to measure the rate of Brownian motion of particles to determine the size and quantification of EVs. Briefly, the sample was injected in a NanoSight cubicle and the size of particles was obtained by determining the motion in fluid passing across the chamber. The number of particles per milliliter was measured from a 0-160 nm range and was acquired from both experimental and control samples for comparison using area under the curve calculations obtained via the linear trapezoidal analysis method.

IL-13 = IL-13 secretion of THP-1 cells (ELISA); format: cell-based, human; conditions: 24 h
STAT1 = STAT1 mRNA transcript expression (qPCR) in hematopoietic cell lines THP-1 and K562; conditions: THP-1 cells, separate hormone treatments, normalized to untreated cells

## CCN(CC)CCCC(C)Nc1ccnc2cc(Cl)ccc12 (centres unmarked) [Chloroquine, chloroquine]
TLR8
  reduction of TLR8 mRNA expression relative to LNA-control: over 95%

## CCOCc1nc2c(N)nc3ccccc3c2n1CC(C)(C)O [R-848]
IL-12
  IL-12 expression induced compared to control treatment: 5 fold
THP-1 cells
  cumulative extracellular particle profiles (0-160 nm, area under the curve) relative to miR-control: 3.7 fold
IL-13
  IL-13 expression upregulated relative to miR-control pseudoexosomes: 1.75 fold

## C[C@]12CCC(=O)C[C@@H]1CC[C@@H]1[C@@H]2CC[C@]2(C)[C@@H](O)CC[C@@H]12 [dihydrotestosterone, 5α-androstatin-17β-ol-one]
STAT1
  hormonal influence on STAT1 expression: hormonal influence was only observed with estrogen treatment

## CC(=O)[C@H]1CC[C@H]2[C@@H]3CCC4=CC(=O)CC[C@]4(C)[C@H]3CC[C@]12C [progesterone]
STAT1
  hormonal influence on STAT1 expression: hormonal influence was only observed with estrogen treatment

## LNA antagomiR-21: locked nucleic acid sequence designed to block miR-21, in liposomal complexes with DOTAP; CAACATCAGTCTGATAAGCT (LNA-modified, pattern not given here, delivered in liposomal complexes)
TLR8
  reduction of TLR8 mRNA expression relative to LNA-control: 46%

B1: prolactin: hormone prolactin (Sigma), 10 ng/mL (protein, UniProt P01236 29-227, looked up)
Prolactin: LPICPGGAARCQVTLRDLFDRAVVLSHYIHNLSSEMFSEFDKRYTHGRGFITKAINSCHTSSLATPEDKEQAQQMNQKDFLSLIVSILRSWNEPLYHLVTEVRGMQEAPEAILSKAVEIEEQTKRLLEGMELIVSQVHPETKENEIYPVWSGLPSLQMADEESRLSAYYNLLHCLRRDSHKIDNYLKLLKCRIIHNNNC
STAT1
  hormonal influence on STAT1 expression: hormonal influence was only observed with estrogen treatment

Reference: patent US12016314B2, “MicroRNA inhibitor therapy in systemic lupus erythematosus” (Ohio State Innovation Foundation, priority 2017, dated 2024)
